In US20240294478A1, “ANTI-CANCER COMPOUNDS AND METHODS OF USE” (YALE UNIVERSITY, priority 2021, published 2024):

Experiments:
[1] = system: LN229 MGMT−/MMR− flank tumors; experiment: Murine flank tumor model, LN229 MGMT-/MMR-; type: in vivo; settings: for tumor growth, MGMT−/MMR− flank tumors: P.O.; for median OS: LN229 MGMT−/MMR− flank tumor-bearing mice, 5 mg/kg
Text: FIGS. 9A-91: KL-50 is safe and efficacious on both MGMT−/MMR+ and MGMT−/MMR-flank tumors over a wide range of treatment regimens and conditions. […] (FIG. 9C) Mean body weight of mice during LN229 flank tumor experiments. (FIG. 9D) Kaplan-Meier analysis of LN229 MGMT−/MMR− xenograft flank tumor-bearing mice to determine survival rate based on death, removal from study if mouse body weight loss exceeded 20% of initial body weight, or if tumor volume exceeded 2000 mm^3. […] (FIGS. 9H-91) Xenograft LN229 MGMT−/MMR+ and LN229 MGMT−/MSH6—flank tumors with a larger average starting tumor size of −400 mm^3 and −350 mm^3 respectively, treated with 3 weekly cycles of P.O administration of 10% cyclodextrin (n=4) or KL-50 (n=4, 3 cycles of 25 mg/kg on Monday, Wednesday, and Friday). The study period was limited by control groups which had to be euthanized for exceeding the ethical maximum allowed tumor size, thus ending the study. In all panels, points, mean; error bars, SEM; *, P<0.05; **, P<0.01; ***, P<0.001; ****, P<0.0001; ns, not significant.
Mouse Protocols for Flank Studies. A mouse tumor model was established by subcutaneously implanting human LN229 (MGMT−/MMR+) or LN229 (MGMT−/MMR−) cells. Cells were cultured as a monolayer in DMEM+10% FBS (Thermo Fisher) at 37° C. in a humidified atmosphere with 5% CO2 and passaged between one and three days prior to implantation and media was replaced every 2-3 days as needed to maintain cell viability. Cells were not allowed to exceed 80% confluency. On the day of implantation, cells were trypsinized, washed with complete media and pelleted by centrifugation at 1200 rpm for 5 minutes. The supernatant was decanted, and cells were washed three times with sterile PBS and pelleted by centrifugation. During the final centrifugation, viability was determined using trypan blue exclusion. Cells were resuspended in sterile PBS and diluted 1:1 in Matrigel (Coming, Cat #47743-716) for a final concentration of 5×10^6 cells/100 μL. 5 million cells were injected into the flank of female nude mice (Envigo, Hsd:Athymic Nude-Fox1nu, 3-4 weeks age, 15 g). […] Caliper measurements were obtained during the dosing period and at least two weeks following treatment. Mice were euthanized if body weight loss exceeded 20% or if tumor volume increased to greater than 2000 mm^3. Kaplan-Meier analysis was used to evaluate survival rate based on death or removal from study.

LN229 MGMT+ shMSH3 cells = experiment: Short-term viability assay, LN229 MGMT+ shMSH3; type: cell-based; settings: Homo sapiens, LN-229, Table III, read-out: IC50 against LN229 cell lines, MGMT MMR−
Experimental: The activity of KL-50 in MGMT-LN229 cells engineered to lack expression of other key MMR proteins including MSH6, MLH1, PMS2, and MSH3 was also confirmed. Western blotting was performed in LN229 MGMT+/−cells with stable expression of shRNA targeting MSH6, MLH1, PMS2, or MSH3 to confirm depletion of the shRNA targets. In shMSH6 cells, there was reduced expression of MSH2, and in shMLH1 cells, there was loss of PMS2, due to destabilization in the setting of loss of their heterodimeric partners. GAPDH serves as loading control. […] Short-term viability assay curves for KL-50 in LN229 MGMT+/−, MMR+/shMSH6 cells. […] Short-term viability assay curves for KL-50 in LN229 MGMT+/−, MMR+/shMLH1 cells. […] Short-term viability assay curves for KL-50 in LN229 MGMT+/−, MMR+/shPMS2 cells. […] Short-term viability assay curves for KL-50 in LN229 MGMT+/−, MMR+/shMSH3 cells.
MMR Protein shRNA Knockdown. pGIPZ lentiviral shRNA vectors targeting MSH2, MSH6, MLH1, PMS2, and MSH3 were purchased from Horizon Discovery (Table IV). […]
Short-term Cell Viability Assay. […] Cells were imaged on a Cytation 3 imaging reader (BioTek) and quantified using CellProfiler software. For in vitro short-term growth delay experiments, IC50 values were determined from the nonlinear regression equation, [inhibitor] vs normalized response with variable slope.

MGMT−/MMR− cells = experiment: IR alkaline comet assay, LN229 MGMT-/MMR-, time course; type: cell-based, human; settings: time points 2-24 h
Experimental: The IR alkaline comet assay, adapted for ICL detection was performed to determine if ICLs were formed in MGMT-cells treated with KL-50. In this assay, cells were sequentially exposed to genotoxins and ionizing radiation, and then analyzed by single cell alkaline gel electrophoresis. Attenuation of the IR-induced comet tail is indicative of ICL formation.
IR Alkaline Comet Assay. This assay was performed utilizing the CometAssay™ Kit (Trevigen) according to the alkaline assay protocol, with the addition of slide irradiation post-lysis. Cells were trypsinized, washed with 1×PBS, added to melted Comet LMAgarose (Trevigen), and spread on Trevigen CometSlides at a density of 1000 cells per sample in 50 μL. Lysis solution (Trevigen) with 10% DMSO was added overnight at 4° C. Slides were removed from lysis buffer and irradiated to 0 or 10 Gy using an XRAD 320 X-Ray System (Precision X-Ray) at 320 kV, 12.5 mA, and 50.0 cm SSD, with a 2 mm Al filter and 20 cm×20 cm collimator. Slides were then placed in alkaline buffer (200 mM NaOH, 1 mM EDTA) for 45 min, followed by electrophoresis in 850 mL alkaline buffer for 45 min at 4° C. Slides were washed and stained with SYBR gold (Invitrogen) per Trevigen assay protocol. Slides were imaged on a Cytation 3 imaging reader (BioTek), and comets were analyzed using CometScore 2.0 software (TriTek).

Compound | tumor growth, MGMT−/MMR− flank tumors ([1]; 5 mg/kg MWF x 3 weeks) | median OS ([1]; Kaplan-Meier) | IC50 (LN229 MGMT+ shMSH3 cells) [µM] | DNA damage in unirradiated samples (MGMT−/MMR− cells) | DNA mobility after IR, rate of ICL formation (MGMT−/MMR− cells) | body weight during flank tumor experiments ([1]; 5 mg/kg MWF x 3 weeks, compared to TMZ or control) | increase in median OS for KL-50 vs TMZ ([1]; Kaplan-Meier, MGMT−/MMR− flank)
Cn1nnc2c(C(N)=O)ncn2c1=O [TMZ, 4-methyl-5-oxo-2,3,4,6,8-pentazabicyclo[4.3.0]nona-2,7,9-triene-9-carboxamide, reference compound] | no efficacy | 10 weeks | 649 ± 32 | maximal damage at 2 h | did not induce a statistically significant decrease in DNA migration within 24 h |  | 
NC(=O)c1ncn2c(=O)n(CCF)nnc12 [KL-50] | potently suppressed tumor growth | greater than 15 weeks | 328 ± 26 | maximal damage at 2 h | time-dependent decrease in DNA mobility | no significant changes in body weight | greater than 5 week
